From PubChem BioAssay (NCI)
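48-hour exposure; five concentrations; linearly interpolated endpoints. TGI marks complete inhibition of growth.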

Experiments:
Experiment in all cases: NCI tumour cell line growth inhibition, 48 h
[1] = test system: KM12 colon
[2] = test system: NCI-H23 lung
[3] = test system: OVCAR-8 ovarian
[4] = test system: HOP-92 NSCLC
[5] = test system: MALME-3M melanoma
[6] = test system: PC-3 prostate
[7] = test system: MDA-N
[8] = test system: HOP-62 NSCLC
[9] = test system: 786-0 renal
[10] = test system: A549 NSCLC
[11] = test system: NCI-H522 lung
[12] = test system: SW-620 colon
[13] = test system: OVCAR-4 ovarian
[14] = test system: MDA-MB-435
[15] = test system: K-562 leukemia
[16] = test system: OVCAR-5 ovarian
[17] = test system: SNB-75 CNS

Structure (SMILES)	TGI [1] [µM]	TGI [2] [µM]	TGI [3] [µM]	TGI [4] [µM]	TGI [5] [µM]	TGI [6] [µM]	TGI [7] [µM]	TGI [8] [µM]	TGI [9] [µM]	TGI [10] [µM]	TGI [11] [µM]	TGI [12] [µM]	TGI [13] [µM]	TGI [14] [µM]	TGI [15] [µM]	TGI [16] [µM]	TGI [17] [µM]
CC[C@H](C)[C@H]1NC(=O)[C@@H](NC(=O)[C@@H](CC(C)C)N(C)C(=O)C2CCCN2C(=O)[C@H](C)O)[C@@H](C)OC(=O)[C@H](Cc2ccc(OC)cc2)N(C)C(=O)[C@@H]2CCCN2C(=O)[C@H](CCCCNC(=O)OCc2ccccc2)NC(=O)[C@H](C)C(=O)[C@H](C(C)C)OC(=O)C[C@@H]1O (some centres undefined)	19.4	> 25	> 25	> 25	20.1	16.5	> 25	> 25	> 25	> 25	> 25	> 25	> 25	> 25	> 25	> 25	–
O=C1C[C@H](c2ccccc2)O[C@@H](c2ccccc2)C1	> 100	> 100	> 100	> 100	> 100	> 100	> 100	> 100	> 100	> 100	–	> 100	> 100	> 100	72.3	> 100	> 100
COc1ccccc1NC(=S)NN=C(C)c1cccc(C(C)=NNC(=S)Nc2ccccc2OC)n1	> 100	> 100	> 100	97.7	40.6	> 100	> 100	> 100	37.7	> 100	97.3	> 100	74.3	> 100	> 100	> 100	> 100
Cc1nc(N)c(N2CCN(C(=O)O)CC2)c(=O)[nH]1	> 100	> 100	> 100	> 100	> 100	> 100	> 100	> 100	> 100	> 100	> 100	> 100	> 100	> 100	> 100	> 100	> 100
CN(C)CCCc1cccc2[nH]c3c(c12)CN(C)CC3	> 100	> 100	> 100	> 100	> 100	> 100	> 100	> 100	> 100	> 100	> 100	> 100	> 100	> 100	> 100	> 100	> 100
COC(=O)/C(C#N)=C(\Nc1ccccc1)N1CCOCC1	–	> 100	> 100	> 100	> 100	> 100	> 100	> 100	> 100	> 100	> 100	> 100	> 100	> 100	> 100	> 100	> 100
O=C(O)CCCC(=O)Nn1c(Cc2ccc(Cl)cc2)n[nH]c1=O	> 100	> 100	> 100	> 100	> 100	> 100	> 100	> 100	> 100	> 100	> 100	> 100	> 100	> 100	> 100	> 100	–
COc1ccc(N=N/C(=N/NC(=O)c2ccc(C)cc2)c2ccc(N(CCC#N)CCC#N)cc2OC)cc1	> 100	> 100	> 100	> 100	> 100	> 100	> 100	> 100	> 100	> 100	> 100	> 100	> 100	> 100	> 100	> 100	–
CC(C)(C)OC(=O)n1c2ccccc2c2c(=O)nc(N3CCCCC3)sc21	> 100	> 100	> 100	> 100	> 100	> 100	> 100	> 100	> 100	> 100	> 100	> 100	> 100	> 100	> 100	> 100	> 100
O=c1[nH]c(Nc2ccc(Cl)c(C(F)(F)F)c2)nc2nc[nH]c12	> 100	> 100	> 100	> 100	> 100	> 100	> 100	> 100	74.8	> 100	34.3	> 100	> 100	> 100	> 100	> 100	> 100
O=c1[nH]c(=O)n(COCc2ccccc2)c2ccsc12	> 100	–	> 100	> 100	> 100	> 100	> 100	> 100	> 100	> 100	> 100	> 100	> 100	> 100	> 100	> 100	> 100
N=C1OC(CN2CCN(c3ccccc3)CC2)CN1C(=S)Nc1ccccc1 (centres undefined)	> 100	> 100	> 100	> 100	> 100	> 100	> 100	> 100	> 100	> 100	> 100	> 100	> 100	> 100	> 100	> 100	> 100
C[N+]1(CCC(=O)c2ccco2)CC2CCC(CC2)C1 (centres undefined)	> 100	> 100	> 100	> 100	> 100	> 100	> 100	–	> 100	> 100	> 100	> 100	> 100	> 100	> 100	> 100	> 100
